IC50, Ki and inhibition data for 14 compounds are collected here from ChEMBL document CHEMBL4665914, “Identification of BRaf-Sparing Amino-Thienopyrimidines with Potent IRE1α Inhibitory Activity” (ACS Med Chem Lett, 2020).

SMILES strings stand for the structures.

Data set [1] concerns the target T1, Serine/threonine-protein kinase/endoribonuclease IRE1 (Homo sapiens, UniProt O75460). Put plainly: Inhibition of IRE1alpha (unknown origin) assessed as XBP-1 slicing luciferase activity incubated for 1 hr followed by stimulation with thapsigargin measured after 5 hrs by luciferase reporter gene assay. Background: Reporter assays use an easily measured gene product as a stand-in for the process of interest.

The target of data set [2] is T1, Serine/threonine-protein kinase/endoribonuclease IRE1. In words: Competitive inhibition of IRE1alpha LKR domain (Q470 to L997 residues) (unknown origin) expressed in Sf9 insect cells using mini-XBP-1 stem-loop RNA as substrate and measured every 2 mins for 50 mins by FRET assay.
For data set [3], the target named is Serine/threonine-protein kinase B-raf (Homo sapiens, UniProt P15056, V600E).
Serine/threonine-protein kinase B-raf, sequence (P15056 2-766 V600E limits assumed): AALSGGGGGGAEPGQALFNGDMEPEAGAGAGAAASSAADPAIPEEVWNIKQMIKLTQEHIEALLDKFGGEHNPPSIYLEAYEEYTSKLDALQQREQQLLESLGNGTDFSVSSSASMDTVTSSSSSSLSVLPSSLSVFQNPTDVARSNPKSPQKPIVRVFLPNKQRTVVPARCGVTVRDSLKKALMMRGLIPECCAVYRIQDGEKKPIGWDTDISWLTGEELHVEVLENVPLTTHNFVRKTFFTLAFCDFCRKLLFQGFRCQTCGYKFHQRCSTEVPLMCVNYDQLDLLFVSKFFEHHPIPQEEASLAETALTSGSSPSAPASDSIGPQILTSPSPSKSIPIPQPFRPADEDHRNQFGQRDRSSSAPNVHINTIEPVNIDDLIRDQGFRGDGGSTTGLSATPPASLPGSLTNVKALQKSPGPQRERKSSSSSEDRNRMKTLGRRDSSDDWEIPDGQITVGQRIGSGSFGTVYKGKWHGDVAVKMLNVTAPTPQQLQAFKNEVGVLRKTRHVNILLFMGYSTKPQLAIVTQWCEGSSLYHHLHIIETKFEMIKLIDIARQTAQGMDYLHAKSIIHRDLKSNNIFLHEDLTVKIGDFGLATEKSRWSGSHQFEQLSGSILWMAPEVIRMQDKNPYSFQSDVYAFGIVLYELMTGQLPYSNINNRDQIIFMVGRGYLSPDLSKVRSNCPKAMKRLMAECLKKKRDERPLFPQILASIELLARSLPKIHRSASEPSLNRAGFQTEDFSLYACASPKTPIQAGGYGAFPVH
The target in data set [4] is T2, hERG (KCNH2) (Homo sapiens, UniProt Q12809). Put plainly: Inhibition of human ERG at 10 uM relative to control.
T2 sequence (Q12809 whole entry): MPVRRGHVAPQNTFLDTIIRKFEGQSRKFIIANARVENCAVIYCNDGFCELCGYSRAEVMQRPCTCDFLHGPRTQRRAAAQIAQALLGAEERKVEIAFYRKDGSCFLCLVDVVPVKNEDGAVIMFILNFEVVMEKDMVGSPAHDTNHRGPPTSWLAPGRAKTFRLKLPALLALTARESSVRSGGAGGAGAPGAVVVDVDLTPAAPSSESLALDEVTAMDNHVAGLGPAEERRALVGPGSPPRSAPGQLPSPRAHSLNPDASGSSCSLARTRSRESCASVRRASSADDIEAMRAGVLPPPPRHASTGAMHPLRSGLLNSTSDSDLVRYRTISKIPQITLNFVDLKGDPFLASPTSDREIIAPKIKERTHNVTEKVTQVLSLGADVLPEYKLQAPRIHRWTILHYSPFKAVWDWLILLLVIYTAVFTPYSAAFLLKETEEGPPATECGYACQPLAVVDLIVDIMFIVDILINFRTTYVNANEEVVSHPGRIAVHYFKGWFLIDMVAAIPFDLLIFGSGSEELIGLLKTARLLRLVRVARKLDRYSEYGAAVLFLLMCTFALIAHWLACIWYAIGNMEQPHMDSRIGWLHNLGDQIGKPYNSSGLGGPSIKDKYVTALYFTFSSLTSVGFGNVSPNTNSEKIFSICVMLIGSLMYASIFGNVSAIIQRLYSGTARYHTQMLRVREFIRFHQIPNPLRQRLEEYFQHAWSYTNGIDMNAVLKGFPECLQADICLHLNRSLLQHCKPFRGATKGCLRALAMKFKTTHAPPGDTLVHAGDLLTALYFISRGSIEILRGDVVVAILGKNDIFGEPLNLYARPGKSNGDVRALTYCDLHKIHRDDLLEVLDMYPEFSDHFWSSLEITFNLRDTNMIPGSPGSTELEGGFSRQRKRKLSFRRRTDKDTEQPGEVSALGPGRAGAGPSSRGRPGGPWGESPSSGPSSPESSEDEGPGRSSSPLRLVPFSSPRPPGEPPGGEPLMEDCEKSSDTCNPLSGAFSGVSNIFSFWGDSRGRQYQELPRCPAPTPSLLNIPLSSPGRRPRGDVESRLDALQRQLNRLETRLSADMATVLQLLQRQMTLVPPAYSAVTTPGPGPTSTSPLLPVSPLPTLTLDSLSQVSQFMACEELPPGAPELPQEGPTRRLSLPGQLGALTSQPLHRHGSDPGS
Data set [5] concerns the target T2, hERG (KCNH2). Put plainly: Inhibition of human ERG at 1 uM relative to control.

T1 sequence (O75460 whole entry): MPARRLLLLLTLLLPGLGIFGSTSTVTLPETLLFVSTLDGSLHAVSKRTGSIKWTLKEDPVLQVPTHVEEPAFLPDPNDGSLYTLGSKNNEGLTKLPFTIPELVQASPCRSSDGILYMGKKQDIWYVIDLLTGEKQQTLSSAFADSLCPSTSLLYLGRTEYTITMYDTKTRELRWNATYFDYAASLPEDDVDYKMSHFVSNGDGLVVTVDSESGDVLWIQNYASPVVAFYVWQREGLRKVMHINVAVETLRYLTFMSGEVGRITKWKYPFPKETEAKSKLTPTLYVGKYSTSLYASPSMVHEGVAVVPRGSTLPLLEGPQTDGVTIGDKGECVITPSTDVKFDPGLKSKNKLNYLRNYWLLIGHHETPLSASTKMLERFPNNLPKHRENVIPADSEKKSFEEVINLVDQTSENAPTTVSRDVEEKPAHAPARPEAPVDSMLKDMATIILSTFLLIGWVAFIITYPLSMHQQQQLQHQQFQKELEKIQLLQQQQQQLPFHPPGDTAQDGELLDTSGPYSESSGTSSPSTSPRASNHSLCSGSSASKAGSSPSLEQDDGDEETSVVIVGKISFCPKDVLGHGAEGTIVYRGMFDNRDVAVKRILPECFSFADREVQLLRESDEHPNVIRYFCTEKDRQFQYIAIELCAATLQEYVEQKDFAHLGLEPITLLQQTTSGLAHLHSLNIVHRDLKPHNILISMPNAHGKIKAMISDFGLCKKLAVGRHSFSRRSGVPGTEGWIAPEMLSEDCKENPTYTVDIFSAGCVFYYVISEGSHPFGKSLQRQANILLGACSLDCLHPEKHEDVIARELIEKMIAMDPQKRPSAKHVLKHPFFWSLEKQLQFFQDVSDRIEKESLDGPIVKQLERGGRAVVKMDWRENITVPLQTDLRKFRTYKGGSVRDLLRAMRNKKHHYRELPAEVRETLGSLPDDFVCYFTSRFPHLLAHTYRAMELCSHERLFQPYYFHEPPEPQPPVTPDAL

As to `Cc1cc(NS(=O)(=O)c2ccccc2Cl)c2ccccc2c1Oc1ncccc1-c1ccnc(N[C@H]2CC[C@H](N)CC2)n1`, the IC50 (as a rule, the concentration needed to halve the response being measured) in data set [1] amounted to 57 nM; in data set [2], 4.2 nM.

With `Cc1cc(C(=O)Nc2c(Cl)ccc(NS(=O)(=O)c3cc(F)ccc3F)c2F)c2ncnc(NCCN)c2c1`, the IC50 in data set [1] came to 31000 nM; in data set [2], 920 nM. Further, the affinity in data set [3] corresponds to a Ki of 5.2 nM.

Regarding `Nc1ncnc2c(C(=O)Nc3c(Cl)ccc(NS(=O)(=O)c4cc(F)ccc4F)c3F)csc12`, the figures for the IC50 in data set [1] and in data set [2] were 5300 nM and 67 nM, respectively. Besides, the Ki (commonly a measure of affinity in units of concentration, obtained from inhibition or displacement) in data set [3] was at most 0.08 nM.

As for `Cc1cc(C(=O)Nc2c(Cl)ccc(NS(=O)(=O)c3cc(F)ccc3F)c2F)c2ncnc(N[C@@H]3CCCNC3)c2c1`, the IC50 stood at 19000 nM in data set [1] and 3500 nM in data set [2]. In data set [3], this compound came in with a Ki of 70 nM.

As for `Cc1nn(C)cc1-c1cc(C(=O)Nc2c(Cl)ccc(NS(=O)(=O)c3ccccc3F)c2F)c2ncnc(N)c2c1`, the figures for the IC50 in data set [1] and in data set [2] were 44 nM and 40 nM, respectively. In data set [3], this compound displayed a Ki of at most 0.08 nM.

Turning to `Cc1cc(C(=O)Nc2c(Cl)ccc(NS(=O)(=O)c3cc(F)ccc3F)c2F)c2ncnc(N[C@H]3CC[C@H](N)CC3)c2c1`, the IC50 came to 19000 nM in data set [1] and 700 nM in data set [2]. The compound further had a Ki in data set [3] of 340 nM.

For `Nc1ncnc2c(C(=O)Nc3c(Cl)ccc(NS(=O)(=O)c4cc(F)ccc4F)c3F)cc(-c3cccnc3)cc12`, the IC50 worked out at 4900 nM in data set [1] and 47 nM in data set [2]. This compound also came in with a Ki in data set [3] of at most 0.08 nM.

Consider `Cc1cc(C(=O)Nc2c(Cl)ccc(NS(=O)(=O)c3cc(F)ccc3F)c2F)c2ncnc(N)c2c1`, for which the figures for the half-inhibitory concentration (IC50) in data set [1] and in data set [2] were 1100 nM and 31 nM, respectively. This compound also registered a Ki in data set [3] of at most 0.08 nM.

On to `Cc1nn(C)cc1-c1cc(C(=O)Nc2c(Cl)ccc(NS(=O)(=O)c3ccccc3Cl)c2F)c2ncnc(N)c2c1`, for which the figures for the IC50 in data set [1] and in data set [2] were 48 nM and 64 nM, respectively. For the same compound, affinity in data set [3] was put at a Ki of 0.25 nM.

As to `Cc1cc(C(=O)Nc2c(Cl)ccc(NS(=O)(=O)c3cc(F)ccc3F)c2F)c2ncnc(N[C@H]3CCCNC3)c2c1`, the IC50 in data set [1] was determined as 9900 nM; in data set [2] it was 670 nM.

With `N[C@H]1CC[C@H](Nc2ncnc3c(C(=O)Nc4c(Cl)ccc(NS(=O)(=O)Cc5ccccc5)c4F)csc23)CC1`, the IC50 in data set [1] stood at 390 nM; in data set [2], 30 nM. Besides, the Ki in data set [3] was 55 nM.

Regarding `Nc1ncnc2c(C(=O)Nc3c(Cl)ccc(NS(=O)(=O)N4CCCC4)c3F)cccc12`, the IC50 in data set [1] came out at 5580 nM; in data set [2], 200 nM. The compound also yielded a Ki in data set [3] of 2.3 nM.

On to `N[C@H]1CC[C@H](Nc2ncnc3c(C(=O)Nc4c(Cl)ccc(NS(=O)(=O)c5ccccc5Cl)c4F)csc23)CC1`, for which the inhibition – broadly, the drop in the measured response relative to a control, in per cent – at 10 µM at hERG (KCNH2) [4] was 6.4%. The IC50 amounted to 120 nM in data set [1] and 22 nM in data set [2]. On hERG (KCNH2) [5], this compound gave an inhibition at 1 µM of 1.1%.

Consider `N[C@H]1CC[C@H](Nc2ncnc3c(C(=O)Nc4c(Cl)ccc(NS(=O)(=O)c5cc(F)ccc5F)c4F)csc23)CC1`, for which the IC50 in data set [1] is 320 nM; in data set [2], 24 nM. For the same compound, the affinity in data set [3] corresponds to a Ki of 1.4 nM.
